According to patent US20230303599A1, “PRODRUGS OF PHOSPHONAMIDE NUCLEOTIDE ANALOGUES AND THEIR PHARMACEUTICAL USE” (priority 2020, published 2023):
Converted amounts (≈) assume the structure as drawn.

Key:
PBMCs = test: TFV-DP formation in peripheral blood mononuclear cells (PBMCs); format: in vitro ADME, human; details: 1 μM compound, 2 hrs at 37° C., 50% serum, activated PBMCs; average of at least two independent experiments
Experimental: Example 109: TFV-DP Formation in Peripheral Blood Mononuclear Cells (PBMCs)
Compounds were tested in a 96-well assay format for the level of TFV-DP loading in PBMCs in the presence of human serum. PBMCs were activated with 100 units/mL recombinant human […] and […] phytohaemagglutinin (PHA) for 36 hrs. After activation, PBMCs (2 million) were incubated with compounds (1 μM) and cell culture media with 50% serum in a 96 well plate for 2 hrs at 37° C. Cells were transferred to a 96 well deep block plate and spun down. Liquid was removed, and cells were washed 2× with 1 mL of 0.9% saline with spin downs between washes. After a final wash and liquid removal, 500 μL of MeOH+200 nM C1-ATP+200 nM [adenine-^13Cs]-tenofovir diphosphate (tetra ammonium salt) was added and thoroughly mixed with the cells. The plate was then spun down and 450 μL of sample was transferred to a new 96 well plate. Supernatants were then evaporated, reconstituted in 80 μl of 1 mM ammonium phosphate and thoroughly vortexed. Blank samples were pooled for serial dilution to construct calibration standards for TFV, TFV-DP and TFV-TP in pmol/million cells. Samples were then transferred to a short-well 96 well plate, centrifuged and injected on an LC-MS/MS for quantification. Values were reported in μM units using an intracellular volume of […].

[1] = Kinetic solubility analysis; format: physicochemical; details: 1× PBS, 24.2 °C, aqueous buffer, kinetic from dmso stock; pH 7.4 PBS, 1% DMSO, 24-hour incubation at ambient temperature
Outline: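 Compounds from 10 mM DMSO stocks were incubated in 0.1 N HCl or 1× PBS pH 7.4 (1.0% DMSO, 100 μM maximum theoretical) for 24 h at 24.2-27.5 °C, then vacuum filtered. Filtrates were quantified in μM by chemiluminescent nitrogen detection against a calibration curve, corrected for background nitrogen; values for adjacent ring-nitrogen compounds were raised ~25%.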

HIV-1 (IIIB) = test: Antiviral (HIV) assay in MT-4 cells; format: cell-based; details: HIV-1 IIIB in MT-4 cells, 5 days, Cell Titer Glo; average of at least two independent experiments; read-out: MT4 HIV EC50
Experimental: Example 104: Antiviral (HIV) Assay in MT-4 Cells
Compounds were tested in a high-throughput 384-well assay format for their ability to inhibit the replication of HIV-1 (IIIB) in MT-4 cells. Compounds were serially diluted (1:3) in DMSO on 384-well polypropylene plates and further diluted 200-fold into complete RPMI media (10% FBS, 1% P/S) using the Biotek Micro Flow and Labcyte ECHO acoustic dispenser. Each plate contained up to 8 test compounds, with negative (no drug) and positive (5 μM AZT) controls. MT-4 cells were pre-treated with 10 μL of either RPMI (mock-infected) or a fresh 1:250 dilution of HIV-1 IIIB concentrated virus stock. Infected and uninfected MT-4 cells were further diluted in complete RPMI media and added to each plate using a Micro Flow dispenser. After 5 days incubation in a humidified and temperature-controlled incubator (37° C.), Cell Titer Glo (Promega) was added to the assay plates and chemiluminescence read using an Envision plate-reader. EC50 values were defined as the compound concentration that causes a 50% decrease in luminescence signal and were calculated using a sigmoidal dose-response model to generate curve fits and are shown in Table 1.

[2] = Cytotoxicity assay in MT-4 cells; format: cell-based; details: human, uninfected MT-4 cells, average of at least two independent experiments, read-out: MT4 CC50
Outline: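 Uninfected MT-4 cells were incubated 5 days at 37 °C with 1:3 serially diluted compound in RPMI (10% FBS), with 10 μM puromycin as baseline cytotoxicity. Viability was read by CellTiter-Glo luminescence. Values are concentrations giving 50% luminescence decrease, from sigmoidal dose-response fits.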

| Average PBMC TFV-DP (μM) (PBMCs) | solubility kinetic at 24 h [1] [µg/mL] | SMILES | EC50 (HIV-1 (IIIB)) [µM] | Average PBMC TFV-DP (PBMCs) [µM] | CC50 at 5 days [2] [µM] |
| --- | --- | --- | --- | --- | --- |
| BLQ | 69 (≈ 110 µM) | C[C@H](Cn1cnc2c(N)ncnc21)OCP(=O)(NC(C)(C)C(=O)OC1CCOCC1)NC(C)(C)C(=O)OC1CCOCC1 [Example 24, Bis(tetrahydro-2H-pyran-4-yl) 2,2′-(((((1-(6-amino-9H-purin-9-yl)propan-2-yl)oxy)methyl)phosphoryl)bis(azanediyl))(R)-bis(2-methylpropanoate)] | – | – | – |
| – | – | CC(C)CCCOC(=O)C(C)(C)NP(=O)(CO[C@H](C)Cn1cnc2c(N)ncnc21)NC(C)(C)C(=O)OCCCC(C)C [Example 67, Bis(4-methylpentyl) 2,2′-(((((1-(6-amino-9H-purin-9-yl)propan-2-yl)oxy)methyl)phosphoryl)bis(azanediyl))(R)-bis(2-methylpropanoate)] | 0.008 | 5.5 | – |
| BLQ | 10 (≈ 11.4 µM) | CCCCCCOC(=O)C(C)(C)NP(=O)(CO[C@H](C)Cn1cnc2c(NC(=O)CC(C)(C)CC(=O)OCc3oc(=O)oc3C)ncnc21)NC(C)(C)C(=O)OCCCCCC [Example 102, Dihexyl 2,2′-(((((1-(6-(3,3-dimethyl-5-((5-methyl-2-oxo-1,3-dioxol-4-yl)methoxy)-5-oxopentanamido)-9H-purin-9-yl)propan-2-yl)oxy)methyl)phosphoryl)bis(azanediyl))(R)-bis(2-methylpropanoate)] | – | – | 45.1 |
